In ChEMBL document CHEMBL1201862, “PubChem BioAssay data set” (2004):
Calls of active or inactive are those of the source.

Legend:
[1] = biological target: T1, Intestinal-type alkaline phosphatase (Homo sapiens, UniProt P09923); assay: Dose Response confirmation of uHTS hits from a small molecule inhibitors of human intestinal alkaline phosphatase via a luminescent assay. [Related pubchem assays (depositor defined):AID2544, AID2574]; format: functional
Cytochrome P450 2C9 = Cytochrome P450 2C9 (Homo sapiens, UniProt P11712)
[2] = biological target: Intestinal-type alkaline phosphatase (Mus musculus, UniProt P24822); assay: PubChem AID 488785; format: functional
Sequence of Intestinal-type alkaline phosphatase (Mus musculus, UniProt P24822) (P24822 whole entry): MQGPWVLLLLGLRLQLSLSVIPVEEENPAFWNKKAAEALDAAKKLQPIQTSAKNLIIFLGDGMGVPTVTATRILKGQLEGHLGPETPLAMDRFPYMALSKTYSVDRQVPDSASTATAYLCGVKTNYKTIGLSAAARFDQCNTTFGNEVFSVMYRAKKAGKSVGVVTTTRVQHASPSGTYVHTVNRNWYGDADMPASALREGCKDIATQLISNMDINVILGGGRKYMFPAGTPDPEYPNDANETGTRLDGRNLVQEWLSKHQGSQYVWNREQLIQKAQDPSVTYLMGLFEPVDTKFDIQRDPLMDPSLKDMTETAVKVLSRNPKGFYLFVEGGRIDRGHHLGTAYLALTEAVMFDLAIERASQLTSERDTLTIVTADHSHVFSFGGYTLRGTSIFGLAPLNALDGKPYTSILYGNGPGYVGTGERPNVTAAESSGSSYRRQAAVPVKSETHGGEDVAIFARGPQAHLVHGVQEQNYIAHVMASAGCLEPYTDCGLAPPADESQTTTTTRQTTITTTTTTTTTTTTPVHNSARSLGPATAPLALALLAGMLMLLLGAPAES

[3] = biological target: T2, Alkaline phosphatase, tissue-nonspecific isozyme (Homo sapiens, UniProt P05186); assay: TNAP enzyme inhibition by screening hits, dose response, selectivity assay for mouse IAP inhibitor project, biochemical, human TNAP, uHTS hits (AID 488906); format: functional
T2 sequence (P05186 whole entry): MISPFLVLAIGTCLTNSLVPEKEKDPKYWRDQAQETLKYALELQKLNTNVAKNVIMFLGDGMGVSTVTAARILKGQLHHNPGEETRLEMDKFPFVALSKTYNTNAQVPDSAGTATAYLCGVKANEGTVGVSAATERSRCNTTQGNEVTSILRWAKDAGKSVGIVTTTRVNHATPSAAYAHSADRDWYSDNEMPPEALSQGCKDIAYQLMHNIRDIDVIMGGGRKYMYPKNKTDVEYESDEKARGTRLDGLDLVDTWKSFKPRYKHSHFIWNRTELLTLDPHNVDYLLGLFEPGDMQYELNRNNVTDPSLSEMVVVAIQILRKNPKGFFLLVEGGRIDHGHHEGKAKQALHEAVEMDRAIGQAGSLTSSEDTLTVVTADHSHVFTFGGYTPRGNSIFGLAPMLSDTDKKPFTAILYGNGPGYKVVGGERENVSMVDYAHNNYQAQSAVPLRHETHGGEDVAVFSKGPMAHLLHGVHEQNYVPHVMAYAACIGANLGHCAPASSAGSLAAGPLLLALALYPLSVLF

[4] = biological target: T1, Intestinal-type alkaline phosphatase; assay: activation of human intestinal alkaline phosphatase – biochemical, dose response (AID 488873); format: functional
Bcl-2-like protein 1 = Bcl-2-like protein 1 (Homo sapiens, UniProt Q07817); assay: blockers of BCLXL peptide binding – biochemical, fluorescence polarization, 1536-well, selectivity assay for MCL1 inhibitor project, dose response (AID 2218)
Sequence of Bcl-2-like protein 1 (Q07817 whole entry): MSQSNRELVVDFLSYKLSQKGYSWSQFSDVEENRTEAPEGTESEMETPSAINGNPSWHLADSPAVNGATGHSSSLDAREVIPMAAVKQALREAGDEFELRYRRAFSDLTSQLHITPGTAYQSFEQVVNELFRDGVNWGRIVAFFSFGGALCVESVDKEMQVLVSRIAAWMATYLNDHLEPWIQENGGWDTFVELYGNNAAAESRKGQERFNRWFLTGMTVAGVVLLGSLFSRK

[5] = biological target: Induced myeloid leukemia cell differentiation protein Mcl-1 (Homo sapiens, UniProt Q07820); assay: blockers of MCL1 binding to BIM peptide – biochemical, fluorescence polarization, BIM-BH3 peptide, 1536-well, dose response (AID 2217)
[6] = biological target: T3, Small ubiquitin-related modifier 1 (Homo sapiens, UniProt P63165); assay: SUMO1 protein-protein binding blockers, potency – biochemical, FRET, dose response (AID 624383); format: functional; settings: read-out: IC50_Mean
T3 sequence (P63165 whole entry): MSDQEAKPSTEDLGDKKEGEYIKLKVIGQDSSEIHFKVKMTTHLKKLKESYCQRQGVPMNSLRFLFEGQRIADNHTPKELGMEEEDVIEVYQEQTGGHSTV

[7] = biological target: DNA (cytosine-5)-methyltransferase 1 (Homo sapiens, UniProt P26358); assay: inhibition of DNA methylation by DNMT1 – biochemical, fluorescent molecular beacon, confirmation (AID 602386); format: functional
[8] = biological target: T3, Small ubiquitin-related modifier 1; assay: SUMO1 protein interaction blockers, potency – biochemical, fluorescence polarization, uHTS hits, dose response (AID 624382); format: functional; settings: read-out: IC50_Mean
[9] = biological target: T4, Kappa-type opioid receptor (Homo sapiens, UniProt P41145); format: functional
T4 sequence (P41145 whole entry): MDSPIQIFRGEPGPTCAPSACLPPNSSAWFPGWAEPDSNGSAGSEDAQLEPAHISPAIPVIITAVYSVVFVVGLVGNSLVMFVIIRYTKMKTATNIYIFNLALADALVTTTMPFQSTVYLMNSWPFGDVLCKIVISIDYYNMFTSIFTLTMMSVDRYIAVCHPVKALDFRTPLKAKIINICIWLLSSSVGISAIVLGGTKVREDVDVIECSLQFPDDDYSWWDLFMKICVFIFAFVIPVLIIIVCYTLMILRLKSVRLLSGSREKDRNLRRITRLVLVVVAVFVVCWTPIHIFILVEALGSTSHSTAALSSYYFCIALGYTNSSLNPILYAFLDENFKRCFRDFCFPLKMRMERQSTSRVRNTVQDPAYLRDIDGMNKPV

[10] = biological target: T4, Kappa-type opioid receptor; format: functional; remark: listed apart in the source
Beta-galactosidase = Beta-galactosidase (Escherichia coli, UniProt Q8VNN2); format: functional
[11] = biological target: T5, Tyrosine-protein phosphatase non-receptor type 7 (Homo sapiens, UniProt P35236); assay: redox-active compounds inhibiting HePTP phosphatase – biochemical, fluorescence, mechanism study (AID 2068); format: functional
T5 sequence (P35236 whole entry): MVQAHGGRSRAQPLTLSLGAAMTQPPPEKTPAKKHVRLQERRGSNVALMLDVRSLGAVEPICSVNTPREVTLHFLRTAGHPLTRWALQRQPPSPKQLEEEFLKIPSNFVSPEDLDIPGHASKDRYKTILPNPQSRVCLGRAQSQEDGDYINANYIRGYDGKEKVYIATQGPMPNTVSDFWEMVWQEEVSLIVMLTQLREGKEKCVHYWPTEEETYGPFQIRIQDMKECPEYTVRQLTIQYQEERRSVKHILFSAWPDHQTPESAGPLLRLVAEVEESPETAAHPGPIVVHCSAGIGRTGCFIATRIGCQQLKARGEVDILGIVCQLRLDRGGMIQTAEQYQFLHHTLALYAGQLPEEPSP

[12] = biological target: T4, Kappa-type opioid receptor; assay: SAR analysis of small molecule agonists of the kappa opioid receptor via a luminescent beta-arrestin assay - Set 2. [Related pubchem assays (depositor defined):AID1777, AID1785, AID1786, AID1966, AID2133, AID2136, AID2284, AID449737]; format: functional
[13] = Vero E6 cell cytotoxicity, dose response, cytotoxicity control for non-replicating M. tuberculosis project, secondary assay (AID 492998); format: functional, VeroE6; settings: Vero C1008
[14] = luciferase reporter signal suppression in cells – H4 neuroglioma cells, luminescence, dose response (AID 1990); format: functional, cell-based
[15] = Luminescence Cell-Based Dose Response HTS to Identify Inhibitors of 5'UTR Stem-Loop Driven Prion Protein mRNA Translation in H4 Neuroglioblastoma Cells. [Related pubchem assays: 1827 (Project Summary), 1813 (Primary HTS)]; format: functional
[16] = HepG2 cell cytotoxicity, dose response, cytotoxicity control for non-replicating M. tuberculosis project (AID 489018); format: functional; settings: Mycobacterium tuberculosis
Cytochrome P450 3A4 = Cytochrome P450 3A4 (Homo sapiens, UniProt P08684);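 further: CYP3A4 tested as one member of a cytochrome P450 panel screen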
Sequence of Cytochrome P450 3A4 (P08684 whole entry): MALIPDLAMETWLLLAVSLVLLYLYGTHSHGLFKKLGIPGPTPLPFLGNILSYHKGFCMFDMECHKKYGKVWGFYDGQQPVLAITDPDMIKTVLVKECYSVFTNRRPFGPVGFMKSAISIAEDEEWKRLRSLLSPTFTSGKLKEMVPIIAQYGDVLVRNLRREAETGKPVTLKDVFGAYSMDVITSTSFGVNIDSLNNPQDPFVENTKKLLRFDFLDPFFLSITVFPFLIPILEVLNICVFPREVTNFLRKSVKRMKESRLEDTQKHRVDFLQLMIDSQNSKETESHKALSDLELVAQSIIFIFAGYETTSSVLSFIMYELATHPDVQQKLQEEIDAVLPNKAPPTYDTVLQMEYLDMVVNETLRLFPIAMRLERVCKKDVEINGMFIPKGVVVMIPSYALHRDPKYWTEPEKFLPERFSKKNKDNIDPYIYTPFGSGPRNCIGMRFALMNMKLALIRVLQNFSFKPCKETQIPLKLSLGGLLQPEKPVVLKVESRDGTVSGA

[17] = NIH-3T3 fibroblast cytotoxicity, dose response, cytotoxicity control, cell-based, fluorescence, Alamar Blue, secondary assay (AID 2327); format: functional;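 further: NIH-3T3 mouse fibroblasts cultured with fluconazole at 8 µg/mL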
cells = format: functional
[18] = fluconazole-exposed Candida albicans growth modulators – fluorescence, retest, confirmation (AID 2467); format: functional, cell-based
[19] = alpha-synuclein stem-loop luciferase translation blockers – H4 neuroglioma cells, luminescence, confirmation (AID 1988); format: functional, cell-based
[20] = biological target: T6, Heat shock factor protein 1 (Mus musculus, UniProt P38532); assay: decrease of HSF1-responsive luciferase luminescence – cell-based, NIH3T3, dose retest, confirmation (AID 2382); format: functional;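 further: NIH3T3 fibroblasts with HSF1-driven luciferase reporter stressed by proteasome inhibitor MG132; luminescence from HSF1-driven luciferase expression after 8 hours of MG132 stress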
T6 sequence (P38532 whole entry): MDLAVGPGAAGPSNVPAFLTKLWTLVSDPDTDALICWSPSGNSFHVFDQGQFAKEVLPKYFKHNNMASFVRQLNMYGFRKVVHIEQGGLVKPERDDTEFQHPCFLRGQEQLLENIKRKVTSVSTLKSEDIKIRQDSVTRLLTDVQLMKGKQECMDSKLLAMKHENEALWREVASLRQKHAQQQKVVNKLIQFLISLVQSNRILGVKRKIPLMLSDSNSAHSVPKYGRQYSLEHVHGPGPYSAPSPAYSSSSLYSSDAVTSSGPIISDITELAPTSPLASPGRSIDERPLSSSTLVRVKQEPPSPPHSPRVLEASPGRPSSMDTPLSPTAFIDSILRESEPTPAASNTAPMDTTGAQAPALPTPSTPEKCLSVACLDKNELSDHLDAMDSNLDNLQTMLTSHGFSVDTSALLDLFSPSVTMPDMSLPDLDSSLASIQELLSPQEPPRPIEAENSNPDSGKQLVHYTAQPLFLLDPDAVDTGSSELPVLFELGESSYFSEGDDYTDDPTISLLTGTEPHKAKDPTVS

[21] = THP-1 cell cytotoxicity, dose response, cytotoxicity control for non-replicating M. tuberculosis project (AID 489025); format: functional
[22] = biological target: ATP-dependent molecular chaperone HSP82 (Candida albicans (strain WO-1) (Yeast), UniProt C4YTQ8); assay: steroid-induced GRE reporter decrease in yeast – S. cerevisiae, luminescence, Hsp90 inhibitor project, dose response (AID 2400); format: functional, cell-based;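 further: beta-galactosidase luminescence from glucocorticoid response element reporter as proxy for Hsp90 function; inhibitor potency where signal loss means Hsp90 inhibition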
Sequence of ATP-dependent molecular chaperone HSP82 (C4YTQ8 whole entry): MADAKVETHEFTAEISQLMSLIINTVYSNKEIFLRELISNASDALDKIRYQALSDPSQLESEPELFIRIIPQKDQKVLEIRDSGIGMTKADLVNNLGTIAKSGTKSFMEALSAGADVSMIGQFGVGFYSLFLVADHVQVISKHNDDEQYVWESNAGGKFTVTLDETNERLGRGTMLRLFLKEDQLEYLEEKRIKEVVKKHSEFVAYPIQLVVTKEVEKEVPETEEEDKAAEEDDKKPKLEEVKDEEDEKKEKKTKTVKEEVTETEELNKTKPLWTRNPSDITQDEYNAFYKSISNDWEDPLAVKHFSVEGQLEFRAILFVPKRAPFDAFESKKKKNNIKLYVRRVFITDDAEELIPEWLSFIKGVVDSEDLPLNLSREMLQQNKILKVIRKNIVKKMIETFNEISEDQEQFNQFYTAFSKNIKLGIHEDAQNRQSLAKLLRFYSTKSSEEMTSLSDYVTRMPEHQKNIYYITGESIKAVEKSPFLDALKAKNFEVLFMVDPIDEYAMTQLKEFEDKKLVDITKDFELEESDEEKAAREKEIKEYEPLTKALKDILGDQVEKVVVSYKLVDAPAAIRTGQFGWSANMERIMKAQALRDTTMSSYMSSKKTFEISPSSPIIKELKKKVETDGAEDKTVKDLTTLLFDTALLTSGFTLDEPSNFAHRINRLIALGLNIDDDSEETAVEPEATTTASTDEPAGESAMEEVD

[23] = biological target: Serine/threonine-protein phosphatase (Candida dubliniensis (strain CD36 / CBS 7987 / NCPF 3949 / NRRLY-17841) (Yeast), UniProt B9W6M3); assay: blockers of CaCl2-induced CDRE-lacZ signaling – S. cerevisiae, luminescence, secondary, dose response (AID 2388); format: functional, cell-based;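 further: yeast reporter cells carrying a calcineurin-responsive lacZ construct stimulated with calcium chloride; luminescent beta-galactosidase reporter signal in whole cells rather than isolated phosphatase activity; potency for inhibition where a drop in reporter signal means calcineurin blockade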
[24] = biological target: NACHT, LRR and PYD domains-containing protein 3 (Homo sapiens, UniProt Q96P20); assay: NALP3 inhibitors in yeast, dose response, luminescent (AID 488799); format: functional
[25] = biological target: T7, Short transient receptor potential channel 4 (Mus musculus, UniProt Q9QUQ5); assay: potentiation of DAMGO-evoked TRPC4 calcium signal – cell-based, HEK293 TRPC4/mu-opioid, Fluo-4 calcium, EC20 DAMGO, dose response (AID 434941); format: functional
T7 sequence (Q9QUQ5 whole entry): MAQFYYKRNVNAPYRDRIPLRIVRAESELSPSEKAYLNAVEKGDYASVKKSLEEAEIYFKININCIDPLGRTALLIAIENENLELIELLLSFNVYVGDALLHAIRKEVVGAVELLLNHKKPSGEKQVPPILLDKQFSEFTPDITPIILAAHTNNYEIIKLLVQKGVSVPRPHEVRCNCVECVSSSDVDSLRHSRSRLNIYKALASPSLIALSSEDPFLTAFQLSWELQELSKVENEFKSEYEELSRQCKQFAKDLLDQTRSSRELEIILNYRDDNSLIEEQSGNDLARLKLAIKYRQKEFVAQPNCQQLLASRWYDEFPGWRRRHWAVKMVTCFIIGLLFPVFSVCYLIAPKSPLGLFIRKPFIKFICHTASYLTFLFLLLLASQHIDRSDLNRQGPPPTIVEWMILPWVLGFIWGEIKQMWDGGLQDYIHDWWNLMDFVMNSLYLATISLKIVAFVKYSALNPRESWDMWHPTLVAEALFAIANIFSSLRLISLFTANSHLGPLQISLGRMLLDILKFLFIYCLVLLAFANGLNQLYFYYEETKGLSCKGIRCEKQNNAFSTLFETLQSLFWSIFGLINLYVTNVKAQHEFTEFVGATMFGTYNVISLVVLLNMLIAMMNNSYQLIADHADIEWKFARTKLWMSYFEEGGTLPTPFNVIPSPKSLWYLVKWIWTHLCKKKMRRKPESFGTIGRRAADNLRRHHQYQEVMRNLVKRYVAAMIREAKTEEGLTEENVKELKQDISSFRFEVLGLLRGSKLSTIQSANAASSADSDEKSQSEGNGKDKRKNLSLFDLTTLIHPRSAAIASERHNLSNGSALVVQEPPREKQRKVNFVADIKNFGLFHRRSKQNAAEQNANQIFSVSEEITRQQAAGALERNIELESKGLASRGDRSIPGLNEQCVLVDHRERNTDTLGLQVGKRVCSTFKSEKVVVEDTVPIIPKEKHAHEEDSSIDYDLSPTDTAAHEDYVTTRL

T-cell = assay: loss of vesicle association with mouse CD8+ T cells – mouse 2C CD8+ T cells, flow cytometry, dose response (AID 485284); format: functional
Integrin alpha-L = Integrin alpha-L (Mus musculus, UniProt P24063); assay: modulators of CD8 T cell-vesicle binding, dose response, powder samples, mouse 2C CD8+ cells (AID 504565); format: functional
Sequence of Integrin alpha-L (P24063 whole entry): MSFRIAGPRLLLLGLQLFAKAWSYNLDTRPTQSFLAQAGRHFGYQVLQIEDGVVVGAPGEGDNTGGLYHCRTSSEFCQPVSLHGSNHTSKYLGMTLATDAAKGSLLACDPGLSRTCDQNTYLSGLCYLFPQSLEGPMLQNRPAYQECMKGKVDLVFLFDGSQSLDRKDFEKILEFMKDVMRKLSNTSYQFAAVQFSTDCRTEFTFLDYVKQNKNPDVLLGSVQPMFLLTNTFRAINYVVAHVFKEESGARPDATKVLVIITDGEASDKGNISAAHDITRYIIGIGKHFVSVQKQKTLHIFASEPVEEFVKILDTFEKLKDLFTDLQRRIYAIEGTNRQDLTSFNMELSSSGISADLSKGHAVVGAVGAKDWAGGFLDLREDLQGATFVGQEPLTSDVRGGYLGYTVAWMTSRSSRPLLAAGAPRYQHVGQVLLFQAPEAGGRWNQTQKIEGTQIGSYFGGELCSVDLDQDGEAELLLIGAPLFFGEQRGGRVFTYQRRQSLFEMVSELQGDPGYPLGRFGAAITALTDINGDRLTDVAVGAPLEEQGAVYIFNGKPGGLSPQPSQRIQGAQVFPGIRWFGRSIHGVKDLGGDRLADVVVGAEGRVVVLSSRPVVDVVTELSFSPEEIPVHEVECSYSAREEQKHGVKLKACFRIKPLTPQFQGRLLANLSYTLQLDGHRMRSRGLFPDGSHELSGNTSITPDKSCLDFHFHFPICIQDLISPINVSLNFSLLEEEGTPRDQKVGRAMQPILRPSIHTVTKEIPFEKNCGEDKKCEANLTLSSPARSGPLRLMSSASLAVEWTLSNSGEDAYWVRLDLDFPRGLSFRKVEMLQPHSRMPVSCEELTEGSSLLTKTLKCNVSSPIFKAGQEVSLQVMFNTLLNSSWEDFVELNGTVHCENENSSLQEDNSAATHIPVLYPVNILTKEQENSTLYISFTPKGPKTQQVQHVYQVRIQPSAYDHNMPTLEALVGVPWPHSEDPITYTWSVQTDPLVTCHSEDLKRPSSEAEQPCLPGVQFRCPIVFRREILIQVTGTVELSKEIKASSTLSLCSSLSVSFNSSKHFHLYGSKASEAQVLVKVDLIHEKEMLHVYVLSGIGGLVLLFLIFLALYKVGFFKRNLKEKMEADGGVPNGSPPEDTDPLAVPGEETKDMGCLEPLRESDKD

[26] = biological target: DNA dC->dU-editing enzyme APOBEC-3A (Homo sapiens, UniProt P31941); assay: A3A deaminase inhibition for selectivity – biochemical, dose response (AID 504722); format: functional
[27] = biological target: DNA dC->dU-editing enzyme APOBEC-3G (Homo sapiens, UniProt Q9HC16); assay: Dose Response confirmation of small molecule APOBEC3G DNA Deaminase Inhibitors via a fluorescence-based single-stranded DNA deaminase assay. [Related pubchem assays (depositor defined):AID493012, AID493028]; format: functional
[28] = biological target: Polyadenylate-binding protein 1 (Homo sapiens, UniProt P11940); assay: PABP inhibition in translation initiation, SAR follow-up (AID 435018); format: functional
Sequence of Polyadenylate-binding protein 1 (P11940 whole entry): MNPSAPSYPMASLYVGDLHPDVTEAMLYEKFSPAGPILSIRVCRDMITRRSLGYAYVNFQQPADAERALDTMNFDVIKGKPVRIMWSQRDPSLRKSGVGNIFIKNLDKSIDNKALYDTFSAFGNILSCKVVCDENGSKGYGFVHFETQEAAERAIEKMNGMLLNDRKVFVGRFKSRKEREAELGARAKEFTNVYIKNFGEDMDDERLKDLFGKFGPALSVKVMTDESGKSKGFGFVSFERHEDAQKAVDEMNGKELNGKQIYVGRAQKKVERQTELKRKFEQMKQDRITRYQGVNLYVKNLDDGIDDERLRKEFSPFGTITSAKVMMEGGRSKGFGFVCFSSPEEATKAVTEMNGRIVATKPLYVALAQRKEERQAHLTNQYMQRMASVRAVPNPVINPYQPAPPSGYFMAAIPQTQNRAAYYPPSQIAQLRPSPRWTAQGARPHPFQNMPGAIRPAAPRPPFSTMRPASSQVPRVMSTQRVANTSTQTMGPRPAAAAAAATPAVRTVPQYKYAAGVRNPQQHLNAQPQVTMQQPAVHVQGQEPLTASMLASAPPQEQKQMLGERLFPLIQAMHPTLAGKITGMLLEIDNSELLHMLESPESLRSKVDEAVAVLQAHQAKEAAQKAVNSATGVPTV

[29] = biological target: Eukaryotic translation initiation factor 4H (Homo sapiens, UniProt Q15056); assay: inhibitors of translation initiation factor eIF4H – SAR follow-up (AID 435011); format: functional

T1 sequence (P09923 whole entry): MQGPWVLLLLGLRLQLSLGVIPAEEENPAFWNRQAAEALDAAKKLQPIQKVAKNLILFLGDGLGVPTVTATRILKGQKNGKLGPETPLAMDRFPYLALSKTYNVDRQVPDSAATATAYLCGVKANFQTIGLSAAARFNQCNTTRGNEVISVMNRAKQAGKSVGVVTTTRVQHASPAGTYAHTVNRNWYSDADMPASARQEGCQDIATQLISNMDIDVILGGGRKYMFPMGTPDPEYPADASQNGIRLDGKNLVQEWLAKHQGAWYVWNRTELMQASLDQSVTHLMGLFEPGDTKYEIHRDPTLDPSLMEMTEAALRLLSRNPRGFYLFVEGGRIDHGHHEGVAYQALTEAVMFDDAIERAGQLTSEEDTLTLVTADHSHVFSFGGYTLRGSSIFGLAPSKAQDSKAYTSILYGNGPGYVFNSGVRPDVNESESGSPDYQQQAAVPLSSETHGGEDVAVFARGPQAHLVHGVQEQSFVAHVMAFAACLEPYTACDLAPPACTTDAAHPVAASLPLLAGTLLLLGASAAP

SMILES: CCCn1c(/C=C/c2ccccc2)nc2ccccc21
- IC50 [1]: > 100 µM (inactive)
- AC50 (Cytochrome P450 2C9): inconclusive

SMILES: O=S(=O)(c1cc(O)ccc1O)c1cccc2c(S(=O)(=O)c3cc(O)ccc3O)cccc12
- IC50 [2]: 12.8 µM (active)
- IC50 [3]: 38.9 µM (active)
- EC50 [4]: 15 µM (active)
- IC50 (Bcl-2-like protein 1): > 109 µM (not active)
- IC50 [5]: 8.31 µM (active)
- IC50 [6]: 5.39 µM (active)
- IC50 [7]: 3.81 µM (active)
- IC50 [8]: > 66.6 µM (inactive)

SMILES: COc1cc2c(cc1OC)C1(CCCC1)CNC2c1cccc([N+](=O)[O-])c1 (stereo unspecified)
- IC50 [9]: > 32 µM
- IC50 [10]: 5.26 µM (active)
- EC50 (Beta-galactosidase): 8.91 µM (active)

SMILES: O=C(Nc1ccc2nc(-c3ccco3)c(-c3ccco3)nc2c1)NC1CCCCC1
- IC50 [11]: > 50 µM (inactive)

SMILES: O=C(CN(Cc1cccs1)C(=O)c1cccnc1)NC1CCCCCC1
- EC50 [12]: > 20 µM (inactive)

SMILES: O=c1c2ccc(Cl)cc2nc(-c2cccc(C(F)(F)F)c2)n1O
- CC50 [13]: 5.29 µM (active)
- EC50 [14]: 10.4 µM (active)
- EC50 [15]: 9.65 µM (active)
- CC50 [16]: 11.9 µM (active)
- AC50 (Cytochrome P450 3A4): 28.2 µM (inconclusive)
- EC50 [17]: > 150 µM (inactive)
- IC50 (cells): 6.27 µM (active)
- EC50 [18]: 0.605 µM (active)
- EC50 [19]: 6.6 µM (active)
- EC50 [20]: > 195 µM (not active)
- CC50 [21]: 2.96 µM (active)
- EC50 [22]: 15.6 µM (active)
- EC50 [23]: > 180 µM (inactive)
- IC50 [24]: 11 µM (active)

SMILES: CCn1c(O)c(N=NC(=O)c2cccc(S(=O)(=O)N3CCCCC3)c2)c2ccccc21
- EC50 [25]: 2.37 µM (active)

SMILES: CCN(CC)S(=O)(=O)c1ccc(Cl)c(NC(=O)COC(=O)C2CCCCC2)c1
- EC50 (T-cell): 0.246 µM (active)
- EC50 (Integrin alpha-L): 0.026 µM (active)

SMILES: COc1ccccc1-n1c(S)nnc1-c1ccccc1
- IC50 [26]: > 100 µM (inactive)
- IC50 [27]: 4.11 µM (active)

SMILES: COc1ccc([N+](=O)[O-])cc1NC(=O)C(C)OC(=O)c1ccc(NC(N)=O)cc1 (stereo unspecified)
- IC50 [28]: > 100 µM (inactive)
- IC50 [29]: > 100 µM (inactive)
